Patent US20120029066A1, “USE OF FLAVONES FOR TREATING PSYCHIATRIC DISORDERS WITH SENSORIMOTOR GATING DEFICITS” (Taipei Medical University, priority 2010, published 2012)

How the values were obtained:
mice [1] = assay: Prepulse inhibition (PPI) of acoustic startle response, test compounds i.p.; settings: for effect of psychotomimetic alone on pre-pulse inhibition of the startle response: control experiment, KET 30 mg/Kg i.p. or MeAmph 2 mg/Kg i.p.; for rescue of PPI disruption induced by methamphetamine: MeAmPh 2 mg/kg i.p., 71 dB-prepulse protocol, FIG. 7
mice [2] = assay: PPI of startle response after bilateral intra-cerebella microinjection of test compounds; type: in vivo; settings: for reinstating ketamine induced PPI disruption: FIG. 4, FIG. 5
Experimental: In view of the finding in FIGS. 2 and 3, test compounds (e.g., hispidulin or Ro-154513) were microinjected into cerebella (e.g., i.cb microinjection) of the test animals to confirm the action site of hispidulin, by observing whether the MeAmph, KET, or MK-801-induced PPI disruption may be rescued.
Briefly, the mice were anaesthetized with pentobarbital (100 mg/kg i.p.) and placed in a stereotaxic frame. After shaving the hair, the skull surface was exposed by an incision. The head position of the mice was adjusted so that the bregma-lambda axis was horizontal. Then, two 24 gauge stainless-steel cannulae were implanted bilaterally into the lateral cerebellum (−6.4 mm caudal, ±1.5 mm lateral, −1.0 mm ventral from Bregma), according to stereotaxic coordinates (Paxions, 2001). Three stainless steel screws and dental cement were used to fix the cannulae on the top of the skull. The animal was allowed to fully recover after surgery for at least one week before the behavioral experiments were conducted.
On the day of experiment, test compounds were injected through the embedded cannula at 0.5 μl on each side of the cerebellum for 30 s and waited for 1 min to allow the injected compounds to diffuse into the cerebellum. PPI test were conducted as described in Example 2. After experiments, methylene blue was microinjected (0.5 μl/side) and animals were sacrificed and cerebellar slices were dissected to confirm the microinjection site. The data was discarded in the mice with incorrect microinjection sites.

Male ICR mice = assay: Methamphetamine-induced hyperlocomotion, locomotor activity test; type: in vivo; settings: 10 mg/Kg i.p. after methamphetamine 2 mg/kg; test after 15 minutes; FIG. 1
Experimental: Male ICR mice (25-35 g) were used in this study. They were bred, housed and maintained in the animal facility center with temperature- and humidity-controlled and 12:12 light dark cycle in National Taiwan University Medical College (NTUM) (Taiwan, R.O.C.). All animal experiments were carried out in accordance with the guidelines established by the Institutional Animal Care and Utilization Committee of the respective university.
Methamphetamine (MeAmPh, 2 mg/kg) was injected into mice to induce hyperlocomotion in the mice as a typical model for behavioral experiments.
After 15 minutes, the treated mice were then subjected to locomotor activity test.
Data herein are expressed as the mean±S.E.M and the n number indicates the number of the mice used. Statistical comparisons between the data in control and treatment conditions were analyzed by Student's t test. An effect was considered statistically significant if the p value was less than 0.05.

[3] = 71 or 77 dB prepulse, 115 dB pulse
[4] = 10 nmol i.cb., KET 30 mg/Kg i.p.

SMILES: CNC1(c2ccccc2Cl)CCCCC1=O (centres unmarked) [KET, ketamine, reference compound]
- effect of psychotomimetic alone on pre-pulse inhibition of the startle response (mice [1]; [3]): inhibited the pre-pulse inhibition

SMILES: CN[C@@H](C)Cc1ccccc1 [MeAmph, methamphetamine, reference compound]
- effect of psychotomimetic alone on pre-pulse inhibition of the startle response (mice [1]; [3]): inhibited the pre-pulse inhibition

SMILES: CCOC(=O)c1ncn2c1CN(C)C(=O)c1cc(N=[N+]=[N-])ccc1-2 [Ro 154513, reference compound]
- reinstating ketamine induced PPI disruption (mice [2]; [4]): reinstated

SMILES: COc1ccc(-c2cc(=O)c3c(O)cc(O)cc3o2)cc1 [acacetin]
- rescue of PPI disruption induced by methamphetamine (mice [1]; 10 mg/Kg i.p.): significantly rescued
- decreasing MeAmph-induced hyperlocomotor activity (Male ICR mice): active

SMILES: NS(=O)(=O)c1cc(C(=O)O)c(NCc2ccco2)cc1Cl [furosemide, reference compound]
- effect on the reinstated ketamine induced PPI disruption (mice [2]; furosemide 50 nmol i.cb., reinstatement by Ro-154513 or hispidulin 10 nmol i.cb., KET 30 mg/Kg i.p., FIG. 6): antagonized
- effect on the reinstated methamphetamine induced PPI disruption (mice [2]; furosemide 50 nmol i.cb., reinstatement by Ro-154513 or hispidulin 10 nmol i.cb., MeAmPh 2 mg/Kg i.p., FIG. 6): antagonized

SMILES: COc1c(O)cc2oc(-c3ccc(O)cc3)cc(=O)c2c1O [hispidulin]
- reinstating ketamine induced PPI disruption (mice [2]; [4]): effective in reinstating
- reinstating MK-801 induced PPI disruption (mice [2]; 10 nmol i.cb., MK-801 0.3 mg/Kg i.p., FIG. 4): effective in reinstating
- reinstating methamphetamine induced PPI disruption (mice [2]; 10 nmol i.cb., methamphetamine 2 mg/Kg i.p., FIG. 4): effective in reinstating
- rescue of KET impaired PPI inhibition (mice [1]; 10 mg/Kg i.p., 15-minute before KET 30 mg/Kg i.p., 71 or 77 dB prepulse, 115 dB pulse, FIG. 2): rescued
- rescue of MeAmph impaired PPI inhibition (mice [1]; 50 mg/Kg i.p., 15-minute before MeAmph 2 mg/Kg i.p., 71 or 77 dB prepulse, FIG. 3): rescued
- decreasing MeAmph-induced hyperlocomotor activity (Male ICR mice): active

SMILES: O=c1cc(-c2ccc(O)c(O)c2)oc2cc(O)cc(O)c12 [luteolin]
- rescue of PPI disruption induced by methamphetamine (mice [1]; 10 mg/Kg i.p.): significantly rescued
